Measured values published in patent US7033812B2, “β-secretase and modulation of β-secretase activity” (Scios Inc., priority 1999, dated 2006).

Tested on: neutral β-secretase activity
Assay: β-secretase ELISA (βNTF) with partially purified APP/β-secretase mixture, pH 7.0
Type: biochemical, human

NCCc1ccc(S(=O)(=O)F)cc1 [AEBSF]
β-secretase inhibition (pH 7): dose-dependent β-secretase inhibition

cardiolipin
detectable levels of β-secretase activity (cardiolipin 0.01–100 μM in assay buffer, pH 7.0, 37° C. 16 hours, FIG. 4A): dose-dependent increase
